The source of these data is ChEMBL document CHEMBL4265936, “Pyrazolo[4,3-b]pyrimido[4,5-e][1,4]diazepine derivatives as new multi-targeted inhibitors of Aurora A/B and KDR” (Eur J Med Chem, 2018).

Series [1] addresses T1, Aurora kinase A (Homo sapiens, UniProt O14965).
T1 sequence (O14965 whole entry): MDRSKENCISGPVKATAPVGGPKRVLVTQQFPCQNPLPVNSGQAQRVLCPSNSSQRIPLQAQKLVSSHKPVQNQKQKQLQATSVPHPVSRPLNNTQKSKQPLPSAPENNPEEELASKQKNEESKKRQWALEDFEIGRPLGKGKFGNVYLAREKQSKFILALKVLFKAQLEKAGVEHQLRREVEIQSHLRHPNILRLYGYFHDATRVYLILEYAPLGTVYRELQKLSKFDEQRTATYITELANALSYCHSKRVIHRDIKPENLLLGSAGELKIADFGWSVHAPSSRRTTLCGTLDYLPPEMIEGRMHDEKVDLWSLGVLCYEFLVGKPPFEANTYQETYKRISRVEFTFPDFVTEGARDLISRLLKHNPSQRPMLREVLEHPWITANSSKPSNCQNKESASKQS
The experiment in a line: Inhibition of Aurora A (unknown origin) using STK S2 as substrate after 40 mins by HTRF assay. In general terms: Time-resolved FRET reads energy transfer from a long-lived donor to a nearby acceptor.

Series [2] deals with Aurora kinase B (Homo sapiens, UniProt Q96GD4). The experiment in a line: Inhibition of Aurora B (unknown origin) using STK S2 as substrate after 30 mins by HTRF assay.
Series [3] has as its target Vascular endothelial growth factor receptor 2 (Homo sapiens, UniProt P35968). The experiment in a line: biochemical. The format is cell-based, Sf21.
Description: Inhibition of recombinant human N-terminal His6-tagged KDR (790 to end residues) expressed in baculovirus infected Sf21 insect cells after 60 mins by ELISA
Series [4] concerns the target Platelet-derived growth factor receptor beta (Homo sapiens) (UniProt P09619). Description: Inhibition of recombinant human PDGFRbeta at 1000 nM after 60 mins by ELISA relative to control. In general terms: In an ELISA, binding on a coated surface is turned into a signal by an enzyme label.
Series [5] concerns the target Proto-oncogene tyrosine-protein kinase receptor Ret (Homo sapiens) (UniProt P07949). The experiment in a line: Inhibition of recombinant human RET at 1000 nM after 60 mins by ELISA relative to control.
For series [6], the system named is Mus musculus. The experiment in a line: Toxicity in nude mouse xenografted with human SNU5 cells assessed as mortality at 30 mg/kg, po qd for 21 days. The class given is organism-based. Conditions: in vivo, 504 h.
For series [7], the system named is Mus musculus. Description: Toxicity in nude mouse xenografted with human SNU5 cells assessed as body weight at 30 mg/kg, po qd for 21 days (reference value: 19.6 g). Conditions: in vivo, 504 h. The class given is organism-based. On the technique in general: Xenograft models place foreign cells or tissue in a host animal.
Series [8] relates to SNU-5. Description: Antitumor activity against human SNU5 cells xenografted in nude mouse assessed as delay in tumor tumor growth at 30 mg/kg, po qd for 21 days relative to control. The format is functional.
In series [9] the test system is MKN-74. Description: Antiproliferative activity against human MKN74 cells after 72 hrs by sulforhodamine B assay. The format is functional, cell-based. The note with it: MKN-74, 72 h.
The test system of series [10] is MKN-45. Description: Antiproliferative activity against human MKN45 cells after 72 hrs by sulforhodamine B assay. The class given is functional, cell-based. Conditions: MKN-45, 72 h.
Series [11] deals with BGC-823. Description: Antiproliferative activity against human BGC823 cells after 72 hrs by sulforhodamine B assay. The class given is functional, cell-based. The note with it: BGC-823, 72 h.
Series [12] deals with SGC-7901. The experiment in a line: Antiproliferative activity against human SGC7901 cells after 72 hrs by sulforhodamine B assay. Conditions: SGC-7901, 72 h. The class given is functional, cell-based.
Series [13] has as its system SNU-5. Description: Antiproliferative activity against human SNU5 cells after 72 hrs by CCK8 assay. Conditions: SNU-5, 72 h. The class given is functional, cell-based.
For series [14], the target named is Receptor tyrosine-protein kinase erbB-2 (Homo sapiens) (UniProt P04626). The experiment in a line: Inhibition of recombinant human Erbb2 at 1000 nM after 60 mins by ELISA relative to control.
Receptor tyrosine-protein kinase erbB-2 (Homo sapiens), sequence (P04626 whole entry): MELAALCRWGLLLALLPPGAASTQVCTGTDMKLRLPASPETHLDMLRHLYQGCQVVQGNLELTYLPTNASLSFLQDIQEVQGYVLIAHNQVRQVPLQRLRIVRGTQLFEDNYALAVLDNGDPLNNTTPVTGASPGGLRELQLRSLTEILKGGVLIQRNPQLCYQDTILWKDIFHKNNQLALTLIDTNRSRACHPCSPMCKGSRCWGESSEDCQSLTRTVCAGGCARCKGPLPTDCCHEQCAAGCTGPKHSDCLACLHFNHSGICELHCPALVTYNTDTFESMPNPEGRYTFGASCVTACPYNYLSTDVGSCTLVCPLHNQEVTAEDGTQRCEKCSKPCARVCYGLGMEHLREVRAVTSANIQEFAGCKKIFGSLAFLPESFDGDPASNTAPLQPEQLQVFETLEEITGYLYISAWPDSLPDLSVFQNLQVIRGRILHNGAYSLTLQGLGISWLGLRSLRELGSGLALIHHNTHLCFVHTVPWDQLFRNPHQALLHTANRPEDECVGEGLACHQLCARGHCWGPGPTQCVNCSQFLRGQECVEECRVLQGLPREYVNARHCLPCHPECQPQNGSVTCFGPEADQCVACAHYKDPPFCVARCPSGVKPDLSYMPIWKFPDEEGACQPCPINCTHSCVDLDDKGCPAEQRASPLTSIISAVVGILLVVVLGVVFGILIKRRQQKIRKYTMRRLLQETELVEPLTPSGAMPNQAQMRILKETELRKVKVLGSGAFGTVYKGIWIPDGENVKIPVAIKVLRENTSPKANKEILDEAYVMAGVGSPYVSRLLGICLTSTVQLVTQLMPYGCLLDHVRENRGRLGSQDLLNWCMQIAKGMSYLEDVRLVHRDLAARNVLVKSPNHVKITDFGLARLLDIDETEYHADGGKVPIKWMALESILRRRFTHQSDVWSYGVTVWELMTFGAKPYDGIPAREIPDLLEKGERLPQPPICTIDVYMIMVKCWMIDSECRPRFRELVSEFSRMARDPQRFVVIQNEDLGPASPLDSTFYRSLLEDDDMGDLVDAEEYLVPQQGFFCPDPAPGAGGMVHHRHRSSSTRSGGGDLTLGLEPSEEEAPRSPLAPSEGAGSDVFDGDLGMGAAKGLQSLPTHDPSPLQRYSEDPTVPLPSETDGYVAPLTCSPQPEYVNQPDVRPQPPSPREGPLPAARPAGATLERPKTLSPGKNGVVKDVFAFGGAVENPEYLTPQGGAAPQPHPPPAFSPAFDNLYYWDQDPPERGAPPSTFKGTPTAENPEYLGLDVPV

Vascular endothelial growth factor receptor 2, sequence (P35968 whole entry): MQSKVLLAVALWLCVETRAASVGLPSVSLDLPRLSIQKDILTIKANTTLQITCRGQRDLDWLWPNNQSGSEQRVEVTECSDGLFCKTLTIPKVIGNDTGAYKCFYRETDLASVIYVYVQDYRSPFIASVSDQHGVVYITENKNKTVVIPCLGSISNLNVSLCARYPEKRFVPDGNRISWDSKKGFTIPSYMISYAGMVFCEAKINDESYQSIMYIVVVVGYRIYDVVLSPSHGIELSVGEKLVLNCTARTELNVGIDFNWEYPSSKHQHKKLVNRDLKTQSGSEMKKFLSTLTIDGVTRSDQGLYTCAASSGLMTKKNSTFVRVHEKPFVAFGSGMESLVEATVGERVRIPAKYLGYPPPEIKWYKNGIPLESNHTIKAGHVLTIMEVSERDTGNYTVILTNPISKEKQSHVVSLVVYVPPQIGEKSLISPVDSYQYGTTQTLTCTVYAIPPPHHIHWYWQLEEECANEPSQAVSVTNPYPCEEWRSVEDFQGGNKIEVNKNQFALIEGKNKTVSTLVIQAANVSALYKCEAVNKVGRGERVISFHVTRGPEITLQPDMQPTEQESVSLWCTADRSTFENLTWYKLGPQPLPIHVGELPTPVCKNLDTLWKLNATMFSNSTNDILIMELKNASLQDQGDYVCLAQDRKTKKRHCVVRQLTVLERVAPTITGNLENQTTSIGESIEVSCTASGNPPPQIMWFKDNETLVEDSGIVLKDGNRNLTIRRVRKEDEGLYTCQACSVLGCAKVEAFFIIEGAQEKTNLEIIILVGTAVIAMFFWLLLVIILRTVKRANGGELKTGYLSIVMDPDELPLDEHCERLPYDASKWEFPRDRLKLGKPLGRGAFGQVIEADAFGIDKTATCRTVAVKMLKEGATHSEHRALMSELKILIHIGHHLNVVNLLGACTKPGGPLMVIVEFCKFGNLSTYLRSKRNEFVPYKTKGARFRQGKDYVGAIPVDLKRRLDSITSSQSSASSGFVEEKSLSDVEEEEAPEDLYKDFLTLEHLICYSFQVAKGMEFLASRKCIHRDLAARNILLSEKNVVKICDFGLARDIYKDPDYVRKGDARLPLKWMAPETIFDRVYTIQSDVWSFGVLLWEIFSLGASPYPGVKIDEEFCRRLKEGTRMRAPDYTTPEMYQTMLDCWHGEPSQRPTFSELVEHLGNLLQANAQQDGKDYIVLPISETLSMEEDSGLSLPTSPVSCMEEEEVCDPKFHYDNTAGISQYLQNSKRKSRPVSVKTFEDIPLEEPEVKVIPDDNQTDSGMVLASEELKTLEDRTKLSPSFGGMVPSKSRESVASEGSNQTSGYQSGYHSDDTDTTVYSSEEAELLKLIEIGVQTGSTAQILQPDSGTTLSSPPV
Aurora kinase B, sequence (Q96GD4 whole entry): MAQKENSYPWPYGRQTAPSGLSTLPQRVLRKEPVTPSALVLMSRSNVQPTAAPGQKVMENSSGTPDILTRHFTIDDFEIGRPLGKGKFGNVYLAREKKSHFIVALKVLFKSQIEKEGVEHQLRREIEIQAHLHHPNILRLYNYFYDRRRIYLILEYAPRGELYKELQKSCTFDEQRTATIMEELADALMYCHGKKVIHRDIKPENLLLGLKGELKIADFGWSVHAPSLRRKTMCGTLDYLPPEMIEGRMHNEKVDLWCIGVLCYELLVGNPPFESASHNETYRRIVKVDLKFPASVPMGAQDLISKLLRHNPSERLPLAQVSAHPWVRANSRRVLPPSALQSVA
Proto-oncogene tyrosine-protein kinase receptor Ret (Homo sapiens), sequence (P07949 whole entry): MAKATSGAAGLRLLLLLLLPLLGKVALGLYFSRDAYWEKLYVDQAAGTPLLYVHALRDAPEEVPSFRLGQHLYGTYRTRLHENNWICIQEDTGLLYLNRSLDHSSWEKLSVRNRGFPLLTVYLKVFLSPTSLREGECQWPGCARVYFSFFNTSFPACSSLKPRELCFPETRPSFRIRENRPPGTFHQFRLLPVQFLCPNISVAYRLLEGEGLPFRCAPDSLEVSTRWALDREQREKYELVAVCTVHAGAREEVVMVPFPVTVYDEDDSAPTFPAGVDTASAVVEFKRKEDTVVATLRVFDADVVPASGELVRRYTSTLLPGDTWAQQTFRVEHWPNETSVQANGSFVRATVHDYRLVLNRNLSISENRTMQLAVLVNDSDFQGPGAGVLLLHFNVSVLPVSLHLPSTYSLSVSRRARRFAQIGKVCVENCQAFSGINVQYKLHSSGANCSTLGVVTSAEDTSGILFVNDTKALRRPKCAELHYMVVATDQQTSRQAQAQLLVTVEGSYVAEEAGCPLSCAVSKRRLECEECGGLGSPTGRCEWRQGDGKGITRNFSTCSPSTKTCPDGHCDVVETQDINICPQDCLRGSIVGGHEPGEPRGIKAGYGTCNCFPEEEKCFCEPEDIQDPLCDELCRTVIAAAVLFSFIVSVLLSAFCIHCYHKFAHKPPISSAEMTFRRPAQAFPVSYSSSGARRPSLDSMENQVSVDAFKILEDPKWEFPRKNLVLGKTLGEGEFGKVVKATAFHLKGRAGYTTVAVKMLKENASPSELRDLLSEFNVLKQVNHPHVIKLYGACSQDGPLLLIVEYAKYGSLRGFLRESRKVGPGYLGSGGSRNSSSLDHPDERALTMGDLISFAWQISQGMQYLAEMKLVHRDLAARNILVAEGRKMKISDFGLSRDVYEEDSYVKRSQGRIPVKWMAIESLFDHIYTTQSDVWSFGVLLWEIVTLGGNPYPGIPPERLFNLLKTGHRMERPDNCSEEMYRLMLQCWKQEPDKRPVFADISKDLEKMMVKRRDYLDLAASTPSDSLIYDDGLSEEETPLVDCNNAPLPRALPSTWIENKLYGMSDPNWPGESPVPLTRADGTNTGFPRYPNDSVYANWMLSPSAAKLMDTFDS

Take `CSc1ncc2c(n1)Nc1n[nH]c(C)c1N=C2c1ccccc1`: the IC50 – broadly, the concentration needed to halve the response being measured – was determined as 193 nM in [1], 894 nM in series [2] and 697 nM in [3].
Take `CCN(CC)CCNC(=O)c1c(C)[nH]c(/C=C2\C(=O)Nc3ccc(F)cc32)c1C`: the inhibition (as a rule, the relative decrease from the control value, in per cent) stood at 75.7% in series [4] and 76.7% in [5].
With `CSc1ncc2c(n1)Nc1n[nH]c(C)c1N=C2c1cccc(F)c1`, the IC50 in series [1] is 167 nM; in series [2] it was 611 nM; in series [3] it was 330 nM.
For `COc1ccc(C2=Nc3c(n[nH]c3C)Nc3nc(SC)ncc32)cc1`, in that order: 93 nM, 2680 nM and 430 nM.
For `CSc1ncc2c(n1)Nc1n[nH]c(C)c1N=C2c1ccc(Cl)cc1`, in that order: 183 nM, 1620 nM and 318 nM.
For the compound `CSc1ncc2c(n1)Nc1n[nH]c(C)c1N=C2c1ccc(C(F)(F)F)cc1`, the results for the IC50 in [1], in [2] and in [3] were 423 nM, 854 nM and 209 nM, respectively.
For the compound `COc1cc2nccc(Oc3ccc(NC(=O)C4(C(=O)Nc5ccc(F)cc5)CC4)cc3)c2cc1OC` [CABOZANTINIB], the Activity result is given as “Non-Toxic” in [6] and 19.9 g in series [7]. In series [8], the T/C – broadly, the result in the treated group divided by that in the control group, in per cent – was 8.41%.
In the case of `COc1cccc2c1C(=O)c1c(O)c3c(c(O)c1C2=O)C[C@@](O)(C(=O)CO)C[C@@H]3O[C@H]1C[C@H](N)[C@H](O)[C@H](C)O1` [DOXORUBICIN], the IC50 in [9] stood at 204 nM; in series [10], 127 nM; in series [11], 405 nM; in series [12], 130 nM; in [13], 237 nM.
On to `CSc1ncc2c(n1)Nc1n[nH]c(C)c1N=C2c1ccccc1C`, for which the IC50 in series [1] stood at 75 nM; in series [2], 610 nM; in series [3], 110 nM.
For the compound `CN(C)C/C=C/C(=O)Nc1cc2c(Nc3ccc(F)c(Cl)c3)ncnc2cc1O[C@H]1CCOC1`, in series [14], the inhibition turned out to be 97.6%.
Regarding `CSc1ncc2c(n1)Nc1n[nH]c(C)c1N=C2c1cccc(Cl)c1`, the figures for the IC50 in series [1], in [2] and in series [3] were 102 nM, 1000 nM and 141 nM, respectively.
For `Cc1ccc(C2=Nc3c(n[nH]c3C)Nc3nc(N4CCN(C)CC4)ncc32)cc1` the same measures were 108 nM, 86 nM and 24.7 nM.
For `CNc1ncc2c(n1)Nc1n[nH]c(C)c1N=C2c1ccc(C)cc1`, in that order: 397 nM, 352 nM and 199 nM.
For `CSc1ncc2c(n1)Nc1n[nH]c(C)c1N=C2c1ccccc1Cl`, in that order: 94 nM, 278 nM and 83.7 nM.
For `Cc1ccc(C2=Nc3c(n[nH]c3C)Nc3nc(NC(C)(C)C)ncc32)cc1`, the IC50 in series [1] was 357 nM; in series [2] it was 1180 nM; in series [3], 84.5 nM.
For `CSc1ncc2c(n1)Nc1n[nH]c(C)c1N=C2c1ccccc1C(F)(F)F`, in that order: 128 nM, 307 nM and 205 nM.
Regarding `Cc1ccc(C2=Nc3c(n[nH]c3C)Nc3nc(NC(C)C)ncc32)cc1`, the IC50 was 63.1 nM in series [1], 54.1 nM in series [2] and 30.3 nM in series [3].
For `CCN(CC)c1ncc2c(n1)Nc1n[nH]c(C)c1N=C2c1ccc(C)cc1`, in that order: 268 nM, 322 nM and 8.3 nM.
For `Cc1ccc(C2=Nc3c(n[nH]c3C)Nc3nc(N4CCCCC4)ncc32)cc1`, in that order: 77.6 nM, 50.3 nM and 30 nM.
As for `COc1ccccc1C1=Nc2c(n[nH]c2C)Nc2nc(SC)ncc21`, the IC50 in series [1] is 191 nM; in series [2], 2320 nM; in [3], 102 nM.
For `CSc1ncc2c(n1)Nc1n[nH]c(C)c1N=C2c1ccc(C)cc1` the same measures were 70.6 nM, 99.8 nM and 157 nM.
